Data taken from patent publication US10106526B2, “Inhibitors of cyclin-dependent kinase 7 (CDK7)” (SYROS PHARMACEUTICALS, INC., priority 2014, dated 2018).

Experiments:
[1] = biological target: CDK7/Cyclin H/MAT1 trimeric complex (Homo sapiens, UniProt P50613); test: CDK7 kinase assay, Caliper/LabChip EZ Reader (Biortus Biosciences); assay type: biochemical; settings: CDK7/Cyclin H/MAT1 10 nM, ATP 2 mM, FAM-CDK7tide 2 μM, 30 min incubation, read-out: CDK7 Inhibition (IC50)
Protocol: Compounds of the invention were further assayed for CDK7 activity at Biortus Biosciences (Jiangyin, Jiangsu Province, P.R. of China) using a CDK7 kinase assay developed with a Caliper/LabChip EZ Reader (Perkin Elmer, Waltham, Mass.). […] The incubation period was chosen such that the total fraction of phosphorylated peptide product produced was <20% for the uninhibited kinase.

A673 cells = test: Inhibition of proliferation of A673 cells (CyQUANT, 72 hour); assay type: cell-based, human; settings: 72 hour proliferation
Protocol: A673 cells are a cell line derived from human muscle Ewing's sarcoma. Representative compounds of the invention were tested at different concentrations (from 4 μM to 126.4 pM; 0.5 log serial dilutions) for their ability to inhibit the proliferation of A673 cells. Known CDK inhibitors flavopiridol and triptolide were used as positive controls. Cells were grown in Dulbecco's Modified Eagle's Medium, +10% FBS+1 mM Sodium Pyruvate. The cells were cultured at 37° C. in a humidified chamber in the presence of 5% CO2. Proliferation assays were conducted over a 72 hour time period. CyQUANT® (Life Technologies, Chicago, Ill. USA) was used to assess the anti-proliferative effects of the compounds following manufacturer's directions and utilizing the reagents supplied with the CyQUANT® kit. In this table, “A” represents an IC50 of less than 500 nM; “B” an IC50 of between 500 nM and 5 μM; and “C” an IC50 of greater than 5 μM.

CDK7 = biological target: T1, CDK7 (Homo sapiens, UniProt P50613); test: CDK7 kinase activity, Adapta kinase assay (Life Technologies); assay type: biochemical; settings: Adapta kinase assay at Life Technologies; 10 μM down to 0.514 nM, 3-fold serial dilutions; read-out: CDK7 Inhibition (IC50)
T1 construct: purchased Life Technologies (Adapta kinase assay service)
T1 sequence (P50613 whole entry): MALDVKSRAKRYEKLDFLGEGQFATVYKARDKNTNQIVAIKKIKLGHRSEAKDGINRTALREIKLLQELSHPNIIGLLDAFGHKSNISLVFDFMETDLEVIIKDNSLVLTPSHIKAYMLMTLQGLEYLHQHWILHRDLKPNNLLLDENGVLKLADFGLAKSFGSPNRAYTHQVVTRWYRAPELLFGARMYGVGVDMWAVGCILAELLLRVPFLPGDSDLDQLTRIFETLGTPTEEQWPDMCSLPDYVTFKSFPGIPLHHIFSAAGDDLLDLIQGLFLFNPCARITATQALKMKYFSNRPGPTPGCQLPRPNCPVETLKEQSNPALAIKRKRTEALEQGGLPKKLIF
T1 sequence (P51946 whole entry partner): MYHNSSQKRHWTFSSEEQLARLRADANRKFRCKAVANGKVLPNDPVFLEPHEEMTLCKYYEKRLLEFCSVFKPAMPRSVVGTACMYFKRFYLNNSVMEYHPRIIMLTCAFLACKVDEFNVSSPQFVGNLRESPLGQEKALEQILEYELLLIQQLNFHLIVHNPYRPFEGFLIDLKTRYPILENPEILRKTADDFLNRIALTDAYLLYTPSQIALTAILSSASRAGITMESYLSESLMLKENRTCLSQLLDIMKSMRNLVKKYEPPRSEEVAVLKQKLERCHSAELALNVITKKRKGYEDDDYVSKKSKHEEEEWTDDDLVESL
T1 sequence (P51948 whole entry partner): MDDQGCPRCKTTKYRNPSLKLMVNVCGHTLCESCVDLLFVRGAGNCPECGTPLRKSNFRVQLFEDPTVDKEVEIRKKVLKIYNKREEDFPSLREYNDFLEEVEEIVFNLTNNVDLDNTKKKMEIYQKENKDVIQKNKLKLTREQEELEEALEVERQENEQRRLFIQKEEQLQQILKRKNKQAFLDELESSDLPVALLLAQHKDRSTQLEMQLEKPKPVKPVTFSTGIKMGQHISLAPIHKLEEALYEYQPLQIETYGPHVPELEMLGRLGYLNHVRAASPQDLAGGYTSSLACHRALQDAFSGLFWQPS
Protocol: Compounds of the invention were assayed for CDK7 activity at Life Technologies™ (Grand Island, N.Y.) using their commercially available Adapta® kinase assay services. Compounds were tested at concentrations ranging from 10 μM down to 0.514 nM in a series of 3-fold serial dilutions. Details of these assays, including substrates used, are available on the Life Technologies web site (http://www.lifetechnologies.com/us/en/home/life-science/drug-discovery/target-and-lead-identification-and-validation/kinasebiology/kinase-activity-assays.html).

Jurkat cells = test: Inhibition of proliferation of Jurkat cells (CellTiter-Glo, 72 hour); assay type: cell-based, human; settings: 10 μM to 316 pM
Protocol: Jurkat cells are a cell line established from a human T cell leukemia. Representative compounds of the invention were tested at different concentrations (from 10 μM to 316 pM; 0.5 log serial dilutions) for their ability to inhibit the proliferation of Jurkat cells. Known CDK inhibitors flavopiridol and triptolide were used as positive controls. Cells were grown in RPMI 1640+10% FBS+1% Glutamax. The cells were supplemented with FBS (Life Technologies) and 100 U·mL^− penicillin, 100 μg·mL^− streptomycin (Invitrogen) and cultured at 37° C. in a humidified chamber in the presence of 5% CO2. Proliferation assays were conducted over a 72 hour time period. CellTiter-Glo® (Promega Corporation, Madison, Wis. USA) was used to assess the anti-proliferative effects of the compounds following manufacturer's directions and utilizing the reagents supplied with the CellTiter-Glo® kit. In this table, “A” represents an IC50 of less than 500 nM; “B” an IC50 of between 500 nM and 5 μM; and “C” an IC50 of greater than 5 μM.

CDK7/Cyclin H/MAT1 trimeric complex, sequence (P50613 whole entry): as the sequence (P50613 whole entry) above
CDK7/Cyclin H/MAT1 trimeric complex, sequence (P51946 whole entry partner): as the sequence (P51946 whole entry partner) above
CDK7/Cyclin H/MAT1 trimeric complex, sequence (P51948 whole entry partner): as the sequence (P51948 whole entry partner) above

Row | SMILES | IC50 [1] [nM] | IC50 (A673 cells; Homo sapiens) [nM] | IC50 (A673 cells) [nM] | also measured
1 | CN(C)C/C=C/C(=O)Nc1ccc(CN[C@H]2CCC[C@@H](Nc3ncc(Cl)c(-c4c[nH]c5ccccc45)n3)C2)nc1 [Compound 261] | < 100 | < 500 |  | 
2 | C=CC(=O)Nc1cnc(CN[C@H]2CCC[C@@H](Nc3ncc(Cl)c(-c4n[nH]c5ccccc45)n3)C2)nc1 [compound 405] | < 100 |  | < 500 | 
3 | CCc1cnc(N[C@@H]2CCC[C@](C)(NCc3ccc(NC(=O)/C=C/CN(C)C)cn3)C2)nc1-c1c[nH]c2ccccc12 [Compound 411, (E)-4-(dimethylamino)-N-[6-[[[(1S,3R)-3-[[5-ethyl-4-(1H-indol-3-yl)pyrimidin-2-yl]amino]-1-methylcyclohexyl]amino]methyl]-3-pyridyl]but-2-enamide] | < 100 | < 500 |  | 
4 | CN(C)C/C=C/C(=O)N1CCN([C@H]2CCC[C@@H](Nc3ncc(Cl)c(C4C(=O)Nc5ccccc54)n3)C2)CC1 (stereo partly drawn) [Compound 293, 3-(5-chloro-2-(((1R,3S)-3-(4-((E)-4-(dimethylamino)but-2-enoyl)piperazin-1-yl)cyclohexyl)amino)pyrimidin-4-yl)indolin-2-One] | 100 to 1000 | < 500 |  | 
5 | CCc1cnc(N[C@@H]2CCC[C@](C)(NC(=O)c3ccc(NC(=O)/C=C/CN(C)C)cn3)C2)nc1-c1c[nH]c2ccccc12 [Compound 407, 5-[[(E)-4-(dimethylamino)but-2-enoyl]amino]-N-[(1S,3R)-3-[[5-ethyl-4-(1H-indol-3-yl)pyrimidin-2-yl]amino]-1-methyl-cyclohexyl]pyridine-2-carboxamide] | < 100 | < 500 |  | 
6 | CN(C)C/C=C/C(=O)Nc1ccc(C(=O)N[C@H]2CCC[C@@H](Nc3ncc(Cl)c(C4C(=O)Nc5ccccc54)n3)C2)nc1 (stereo partly drawn) [Compound 282, N-((1S,3R)-3-(5-Chloro-4-(2-oxoindolin-3-yl)pyrimidin-2-ylamino)cyclohexyl)-5-((E)-4-(dimethylamino)but-2-enamido)picolinamide] | 100 to 1000 | < 500 |  | 
7 | CN(C)C/C=C/C(=O)Nc1ccc(C(=O)N[C@@]2(C)CCC[C@@H](Nc3ncc(Cl)c(-c4c[nH]c5ccccc45)n3)C2)nc1 [Compound 267, N-((1S,3R)-3-(5-chloro-4-(1H-indol-3-yl)pyrimidin-2-ylamino)-1-methylcyclohexyl)-5-((E)-4-(dimethylamino)but-2-enamido)picolinamide] | < 100 | < 500 |  | 
8 | C=CC(=O)N1CCN(C2CCCC(Nc3ncc(Cl)c(-c4c[nH]c5ccccc45)n3)C2)C(C)C1 (centres unmarked) [Compound 260] | < 100 |  | < 500 | 
9 | C=CC(=O)N1CC(F)(F)C[C@H]1C(=O)N[C@H]1CCC[C@@H](Nc2ncc(Cl)c(-c3n[nH]c4ccccc34)n2)C1 [compound 391] | < 100 |  | < 500 | 
10 | CN(C)C/C=C/C(=O)N1CC(F)(F)C[C@H]1C(=O)N[C@H]1CCC[C@@H](Nc2ncc(Cl)c(-c3n[nH]c4ccccc34)n2)C1 [compound 404] | < 100 |  | < 500 | 
11 | C=CC(=O)NC1CN(C2CCCC(Nc3ncc(Cl)c(-c4c[nH]c5ccccc45)n3)C2)C1 (mixture of isomers) [Compound 255] | < 100 |  | < 500 | 
12 | C=CC(=O)N1CCC[C@@H](NCc2ccc(Nc3ncc(Cl)c(-c4c[nH]c5ccccc45)n3)cc2)C1 [compound 393] | < 100 |  | < 500 | 
13 | C=CC(=O)N[C@H]1CCN([C@H]2CCC[C@@H](Nc3ncc(Cl)c(-c4c[nH]c5ccccc45)n3)C2)C1 [Compound 370, N—((S)-1-((1S,3R)-3-((5-chloro-4-(1H-indol-3-yl)pyrimidin-2-yl)amino)cyclohexyl)pyrrolidin-3-yl)acrylamide] | < 100 | < 500 |  | 
14 | CN(C)C/C=C/C(=O)N1CC(F)(F)C[C@H]1C(=O)N[C@H]1CCC[C@@H](Nc2ncc(C#N)c(-c3c[nH]c4ccccc34)n2)C1 [compound 396] | < 100 |  | < 500 | 
15 | CCc1cnc(N[C@@H]2CCC[C@](C)(NCc3ccc(NC(=O)/C=C/CN(C)C)cn3)C2)nc1-c1n[nH]c2ccccc12 [Compound 413, (E)-4-(dimethylamino)-N-[6-[[[(1S,3R)-3-[[5-ethyl-4-(1H-indazol-3-yl)pyrimidin-2-yl]amino]-1-methyl-cyclohexyl]amino]methyl]-3-pyridyl]but-2-enamide] | < 100 | < 500 |  | 
16 | C=CC(=O)N1CCN([C@]23CCC[C@](Nc4ncc(Cl)c(-c5c[nH]c6ccccc56)n4)(CC2)C3)CC1 [Compound 408, 1-(4-((1R,5S)-5-(5-Chloro-4-(1H-indol-3-yl)pyrimidin-2-ylamino)bicyclo[3.2.1]octan-1-yl)piperazin-1-yl)prop-2-en-1-One] | < 100 | < 500 |  | 
17 | C=CC(=O)N1CCN([C@H]2CCC[C@@H](Nc3ncc(Cl)c(-c4nnc5ccccn45)n3)C2)CC1 [Compound 344, 1-(4-((1S,3R)-3-((4-([1,2,4]triazolo[4,3-a]pyridin-3-yl)-5-chloropyrimidin-2-yl)amino)cyclohexyl)piperazin-1-yl)prop-2-en-1-One] | < 100 | < 500 |  | 
18 | CN(C)C/C=C/C(=O)N1CCC[C@@H](NCc2ccc(Nc3ncc(Cl)c(-c4c[nH]c5ccccc45)n3)cc2)C1 [Compound 415, (R,E)-1-(3-((4-((5-chloro-4-(1H-indol-3-yl)pyrimidin-2-yl)amino)benzyl)amino)piperidin-1-yl)-4-(dimethylamino)but-2-en-1-One] | < 100 | < 500 |  | 
19 | CN(C)C/C=C/C(=O)N1CCN([C@H]2CCC[C@@H](Nc3ncc(Cl)c(-c4cnc5ccccn45)n3)C2)CC1 [compound 400] | < 100 |  | < 500 | 
20 | C=CC(=O)NC1CCCN(C2CCCC(Nc3ncc(Cl)c(-c4c[nH]c5ccccc45)n3)C2)C1 (mixture of isomers) [Compound 256] | < 100 |  | < 500 | 
21 | C=CC(=O)N1CCN([C@H]2CCC[C@@H](Nc3ncc(Cl)c(-c4cnc5ccccn45)n3)C2)CC1 [Compound 414, 1-[4-[(1S,3R)-3-[(5-chloro-4-imidazo[1,2-a]pyridin-3-yl-pyrimidin-2-yl)amino]cyclohexyl]piperazin-1-yl]prop-2-en-1-One] | 100 to 1000 | < 500 |  | 
22 | CN(C)C/C=C/C(=O)Nc1ccc(CN(C)[C@H]2CCC[C@@H](Nc3ncc(Cl)c(-c4c[nH]c5ccccc45)n3)C2)nc1 [Compound 377, (E)-N-(6-((((1S,3R)-3-((5-chloro-4-(1H-indol-3-yl)pyrimidin-2-yl)amino)cyclohexyl)(methyl)amino)methyl)pyridin-3-yl)-4-(dimethylamino)but-2-enamide] | < 100 | < 500 |  | 
23 | C=CC(=O)N1CCN([C@H]2CCC[C@@H](Nc3ncc(Cl)c(-c4c[nH]c5ccccc45)n3)C2)C(=O)C1 [compound 410] | < 100 |  | < 500 | 
24 | C=C(F)C(=O)Nc1ccc(C(=O)N[C@H]2CCC[C@@H](Nc3ncc(Cl)c(-c4c[nH]c5ccccc45)n3)C2)nc1 [compound 402] | 100 to 1000 |  | < 500 | 
25 | C=CC(=O)NC1CC2CCC(C1)N2C1CCCC(Nc2ncc(Cl)c(-c3c[nH]c4ccccc34)n2)C1 (mixture of isomers) [Compound 259] | 100 to 1000 |  | < 500 | 
26 | C=CC(=O)N1CCN([C@@H]2CCC[C@@H](Nc3ncc(Cl)c(-c4c[nH]c5ccccc45)n3)C2)CC1 [Compound 180] |  |  | < 500 | IC50 (CDK7): 100 to 1000 nM; IC50 (Jurkat cells): < 500 nM
27 | C=CC(=O)N[C@@H]1CN[C@H](C(=O)N[C@H]2CCC[C@@H](Nc3ncc(Cl)c(-c4c[nH]c5ccccc45)n3)C2)C1 [Compound 153, (2S,4S)-4-acrylamido-N-((1S,3R)-3-(5-chloro-4-(1H-indol-3-yl)pyrimidin-2-ylamino)cyclohexyl)pyrrolidine-2-carboxamide] |  | < 500 |  | IC50 (CDK7): < 100 nM; IC50 (Jurkat cells; Homo sapiens): < 500 nM
